≈ marks a conversion by molar mass, not a printed value. Structures can show the parent of a compound that is named as a salt.
test system: Mycolicibacterium fortuitum; assay: Antibacterial activity against Mycobacterium fortuitum ATCC 6841 assessed as reduction in bacterial growth incubated for 72 hrs by Mueller-Hinton broth micro-dilution based assay; format: functional

| Structure (SMILES) | MIC [µM] |
| --- | --- |
| CCCCCCCCCCCCCCCC(=O)O [PALMITIC ACID] | 2 (≈ 0.513 µg/mL) |
| CCCCC/C=C\C/C=C\CCCCCCCC(=O)O [LINOLEIC ACID] | 14.3 (≈ 4 µg/mL) |

test system: Mycolicibacterium fortuitum; assay: Antimycobacterial activity against Mycobacterium fortuitum ATCC 6841; format: functional

| MIC [µM] | Structure (SMILES) |
| --- | --- |
| 48.8 (≈ 12.5 µg/mL) | CC(C)(O)c1cc2c(o1)C(=O)c1ccccc1C2=O [AVICEQUINONE C] |
| 0.12 (≈ 0.0392 µg/mL) | C/C=C/c1cc(OC)c2c(c1)[C@@H](C)[C@H](c1ccc(O)c(OC)c1)O2 [LICARINE A] |
| 0.15 (≈ 0.0487 µg/mL) | C/C=C/c1cc(OC)c2oc(-c3ccc(O)c(OC)c3)c(C)c2c1 |

Further lines, the compound ahead of its results:

| Structure (SMILES) | MIC [µM] |
| --- | --- |
| CCN(CC)C(=S)Sc1ncc([N+](=O)[O-])cc1C#N | 1.35 (≈ 0.4 µg/mL) |
| OCCCCCCCCN=C=S | 21.4 (≈ 4 µg/mL) |
| COc1ncnc(SC(=S)N2CCCC2)c1[N+](=O)[O-] | 5.19 (≈ 1.56 µg/mL) |
| CC(C)(O)[C@@H]1OC2=C(C(=O)c3ccccc3C2=O)[C@H]1O | 45.6 (≈ 12.5 µg/mL) |
| NC(=O)c1cc([N+](=O)[O-])cc([N+](=O)[O-])c1SC(=S)N1CCCC1 | 17.5 (≈ 6.25 µg/mL) |
| CN(C)c1ncnc(SC(=S)N2CCCC2)c1[N+](=O)[O-] | 4.98 (≈ 1.56 µg/mL) |
| c1ccc2c(c1)[I+]c1ccccc1-2 [DIPHENYLENEIODONIUM CHLORIDE] | 0.4 |
| N#Cc1cc([N+](=O)[O-])cnc1SC(=S)N1CCCC1 | 5.3 (≈ 1.56 µg/mL) |
| CC1(C)CCC2=C(O1)c1ccccc1C(=O)C2=O [LAPACHONE] | 0.13 (≈ 0.0315 µg/mL) |
| Cc1cc(O)c2c(c1)C(=O)C=CC2=O [RAMENTACEONE] | 0.12 (≈ 0.0226 µg/mL) |
| N#Cc1cc([N+](=O)[O-])cnc1SC(=S)N1CCCCC1 | 5.05 (≈ 1.56 µg/mL) |
| O=c1nc(N2CCN(CC3CCCCC3)CC2)sc2c([N+](=O)[O-])cc(C(F)(F)F)cc12 [MACOZINONE] | 0.022 (≈ 0.01 µg/mL) |
| N#Cc1cc([N+](=O)[O-])cnc1SC(=S)N1CCCCCC1 | 2.48 (≈ 0.8 µg/mL) |

test system: Mycolicibacterium fortuitum; assay: Antimycobacterial activity against Mycobacterium fortuitum ATCC 35931 assessed as reduction in bacterial growth; format: functional

| MIC [µM] | Structure (SMILES) |
| --- | --- |
| 3.81 (≈ 1.56 µg/mL) | Fc1ccc(C(c2ccc(OCCN3CCCCCC3)cc2)c2cccs2)cc1 (stereo unspecified) |
| 7.67 (≈ 3.13 µg/mL) | COc1cccc(C(c2ccc(OCCN3CCCCC3)cc2)c2cccs2)c1 (stereo unspecified) |
| 15.2 (≈ 6.26 µg/mL) | CC(C)N(CCOc1ccc(C(c2ccc(F)cc2)c2cccs2)cc1)C(C)C (stereo unspecified) |
| 16.3 (≈ 6.25 µg/mL) | CCN(CC)CCOc1ccc(C(c2ccc(F)cc2)c2cccs2)cc1 (stereo unspecified) |
| 8.2 (≈ 3.13 µg/mL) | Fc1ccc(C(c2ccc(OCCN3CCCC3)cc2)c2cccs2)cc1 (stereo unspecified) |
| 7.9 (≈ 3.12 µg/mL) | Fc1ccc(C(c2ccc(OCCN3CCCCC3)cc2)c2cccs2)cc1 (stereo unspecified) |
| 92.5 (≈ 25 µg/mL) | COc1cc(OC)c2c(ccc3cc(O)c(O)cc32)c1 |
| 7.67 (≈ 3.13 µg/mL) | COc1ccc(C(c2ccc(OCCN3CCCCC3)cc2)c2cccs2)cc1 (stereo unspecified) |

More lines, now with the values behind:

| Structure (SMILES) | MIC [µM] |
| --- | --- |
| CC(C)N(CCOc1ccc(C(c2ccc(Cl)cc2)c2cccs2)cc1)C(C)C (stereo unspecified) | 29.3 (≈ 12.5 µg/mL) |
| CC(=O)c1ccc2c3c4c(c(O)cc(C)c4c(O)c2c1O)C(=O)c1c(O)cc(C)cc1-3 | 0.12 (≈ 0.0497 µg/mL) |
| C[n+]1ccc(-c2c3nc(c(-c4cc[n+](C)cc4)c4ccc([nH]4)c(-c4cc[n+](C)cc4)c4ccc([nH]4)c(-c4cc[n+](C)cc4)c4nc2C=C4)C=C3)cc1 [TMPYP4] | 50 |
| CC(=O)OCC1=CCc2c(cc(O)c3c(=O)cc(C)oc23)OC1 | 25.3 (≈ 8 µg/mL) |
| Clc1ccc(C(c2ccc(OCCN3CCCCC3)cc2)c2cccs2)cc1 (stereo unspecified) | 3.79 (≈ 1.56 µg/mL) |
| CC(=O)c1c(O)c(C)c(O)c2c1OC1=CC(=O)C(C(C)=O)C(=O)C12C (stereo unspecified) | 0.15 (≈ 0.0516 µg/mL) |
| CCN(CC)CCCCOc1cc2oc3cc(OCCCCN(CC)CC)c(OC)c(CC=C(C)C)c3c(=O)c2c(OCCCCN(CC)CC)c1CC=C(C)C | 15.8 (≈ 12.5 µg/mL) |
| O=S(=O)(O)c1ccc(-c2c3nc(c(-c4ccc(S(=O)(=O)O)cc4)c4ccc([nH]4)c(-c4ccc(S(=O)(=O)O)cc4)c4nc(c(-c5ccc(S(=O)(=O)O)cc5)c5ccc2[nH]5)C=C4)C=C3)cc1 | 100 (≈ 93.5 µg/mL) |

test system: Mycolicibacterium fortuitum; assay: Antimycobacterial activity against Mycobacterium fortuitum NCTC 10394 assessed as reduction in microbial growth incubated for 72 hrs by resazurin dye based broth microdilution method; format: functional

| MIC [µM] | Structure (SMILES) |
| --- | --- |
| 59.5 | C[n+]1c2ccccc2cc2[n-]c3ccccc3c21 [CRYPTOLEPINE HYDROCHLORIDE] |
| 72.7 | O=c1ccc2nccc3c4ccccc4n1c23 [CANTHIN-6-ONE] |
| 67.7 | O=c1ccc2nccc3c4cccc(O)c4n1c23 |

The remaining lines, values behind:

| Structure (SMILES) | MIC [µM] |
| --- | --- |
| C[C@@H]([C@H](NC(=O)[C@H](CC1CCCCC1)NC(=O)N[C@@H](Cc1c[nH]c2ccccc12)C(=O)NCC(C)(C)C)C(=O)NC[C@H]1C[C@@H](O)[C@H](n2ccc(=O)[nH]c2=O)O1)N(C)C(=O)CN | 1 |
| CC(C)CCn1cc(NC(=O)c2ccc3[nH]c(C(=O)Nc4cc(C(=O)Nc5ccc(C(=O)NCCN6CCN(C)CC6)n5C)n(CCC(C)C)c4)cc3c2)cc1C(=O)Nc1cc(C(=O)NCCN2CCN(C)CC2)n(C)c1 | 9.5 |
| CC(C)CCn1cc(NC(=O)c2ccc3[nH]c(C(=O)Nc4cc(C(=O)Nc5ccc(C(=O)NCCN(C)C)n5C)n(CCC(C)C)c4)cc3c2)cc1C(=O)Nc1cc(C(=O)NCCN(C)C)n(C)c1 | 5.2 |
| C[C@@H]([C@H](NC(=O)[C@H](Cc1ccc2ccccc2c1)NC(=O)N[C@@H](Cc1c[nH]c2ccccc12)C(=O)NCC(C)(C)C)C(=O)NC[C@H]1C[C@@H](O)[C@H](n2ccc(=O)[nH]c2=O)O1)N(C)C(=O)CN | 1 |
| C1=C2CCCC/C=C\C=C\CCN3CC[C@@H]4[C@H](CCCCCC/C=C\C=C/CCN(C2)C[C@H]14)C3 [HALICYCLAMINE A] | 54 |

test system: Mycolicibacterium fortuitum; assay: Antimycobacterial activity against Mycobacterium fortuitum ATCC 6841 assessed as reduction in microbial growth incubated for 72 hrs by resazurin dye based broth microdilution method; format: functional

| MIC [µM] | Structure (SMILES) |
| --- | --- |
| 0.9 | COc1cc([C@](O)(CCN(C)C)[C@@H](c2cc3cc(Br)ccc3nc2OC)c2ccnc(OC)c2OC)cc(OC)n1 |
| 1.17 | COc1ncccc1Nc1cc2nc3ccccc3n(-c3ccc(OC(F)(F)F)cc3)c-2c/c1=N\C1CCC(OC)CC1 (stereo unspecified) |
| 2.2 | CC(=O)NC[C@H]1CN(c2ccc(N3CCN(c4ccc5nccn5n4)CC3)c(F)c2)C(=O)O1 |
| 15 | COc1ncc(-c2ccc(Cl)cc2)cc1[C@@H](c1ccccc1)[C@@](O)(CCN(C)C)c1cccc2ccccc12 [SUDAPYRIDINE] |
| 0.61 | CC(=O)NC[C@H]1CN(c2ccc(-c3ccc(-c4nnnn4C)nc3)c(F)c2)C(=O)O1 |

Continued, compound first:

| Structure (SMILES) | MIC [µM] |
| --- | --- |
| O=c1ccc2ncc(=O)n3c2n1C[C@H]3CN1CCC(NCc2cc3c(cn2)OCCC3)CC1 [GEPOTIDACIN] | 4.46 |
| O=[N+]([O-])c1ccc(C2=NOC(c3ccc(N4CCC(Oc5ccc(OC(F)(F)F)cc5)CC4)cc3)C2)o1 (stereo unspecified) | 12.1 |
| COc1c(N2CCN(c3ccc(N4C[C@H](CNC(C)=O)OC4=O)cc3F)CC2)cnc2nccn12 | 2.07 |

test system: Mycolicibacterium fortuitum; assay: Antibacterial activity against Mycobacterium fortuitum; format: functional

| MIC [µM] | Structure (SMILES) |
| --- | --- |
| 0.54 (≈ 0.157 µg/mL) | N=C(N)N1N=C(/C=C/c2ccccc2)CC1c1ccccc1 (stereo unspecified) |
| 0.89 (≈ 0.312 µg/mL) | COc1ccccc1/C=C/C1=NN(C(=N)N)C(c2ccccc2OC)C1 (stereo unspecified) |
| > 10.3 | C[C@H](OC(=O)c1cc([N+](=O)[O-])cc([N+](=O)[O-])c1)c1ccccc1 |
| 32 (≈ 7.02 µg/mL) | CCCCN1C(=S)C(=O)c2ccccc21 |
| 0.43 (≈ 0.154 µg/mL) | N=C(N)N1N=C(/C=C/c2ccc(Cl)cc2)CC1c1ccc(Cl)cc1 (stereo unspecified) |
| 0.49 (≈ 0.156 µg/mL) | Cc1ccccc1/C=C/C1=NN(C(=N)N)C(c2ccccc2C)C1 (stereo unspecified) |
| 61.5 (≈ 16 µg/mL) | CCOC(=O)/C=C/C(=O)c1cc2ccccc2s1 |
| 56.7 (≈ 16 µg/mL) | COc1cc(O)cc(/C=C/c2cc3ccccc3s2)c1 |
| 63 (≈ 15.1 µg/mL) | O=C1C(=S)N(c2ccccc2)c2ccccc21 |
| 63 (≈ 11.2 µg/mL) | CN1C(=S)C(=O)c2ccccc21 |
| 15.8 (≈ 8.02 µg/mL) | COc1cc(Cc2cc(-c3ccc(Cl)cc3)n(-c3ccc(Cl)cc3)c2C)ccc1N1CCNCC1 |
| 4.94 (≈ 1.56 µg/mL) | C[C@@H](OC(=O)c1cc([N+](=O)[O-])cc([N+](=O)[O-])c1)c1ccccc1 |
| 5.31 (≈ 2.5 µg/mL) | COc1cc(/C=C/C2=NN(C(=N)N)C(c3cc(OC)c(OC)c(OC)c3)C2)cc(OC)c1OC (stereo unspecified) |
| 0.44 (≈ 0.154 µg/mL) | COc1ccc(/C=C/C2=NN(C(=N)N)C(c3ccc(OC)cc3)C2)cc1 (stereo unspecified) |
| 39.7 (≈ 12.5 µg/mL) | C[C@H](NC(=O)c1cc([N+](=O)[O-])cc([N+](=O)[O-])c1)c1ccccc1 |

Second part, the compound before the results:

| Structure (SMILES) | MIC [µM] |
| --- | --- |
| CC(=O)O[C@@H]1[C@@H](OC(C)=O)[C@@H](O)[C@H](OC[C@]2(C)[C@@H](O)C[C@H](O)[C@]3(C)[C@H]4CC=C5[C@@H]6C[C@](C)(C(=O)O[C@@H]7O[C@@H](C)[C@H](O)[C@@H](O)[C@H]7O)CC[C@]6(C)CC[C@@]5(C)[C@]4(C)CC[C@@H]23)O[C@H]1C | 27.9 (≈ 24.2 µg/mL) |
| CC1(C)[C@@H](O)C[C@H](O)[C@]2(C)[C@H]3CC=C4[C@@H]5C[C@](C)(C(=O)O)CC[C@]5(C)CC[C@@]4(C)[C@]3(C)CC[C@@H]12 | 3.2 (≈ 1.51 µg/mL) |
| OCCCCCCCCN=C=S | 20 (≈ 3.74 µg/mL) |
| C[C@@H](NC(=O)c1cc([N+](=O)[O-])cc([N+](=O)[O-])c1)c1ccccc1 | 1.27 (≈ 0.4 µg/mL) |
| CC(=O)O[C@@H]1[C@@H](OC(C)=O)[C@@H](O)[C@H](OC[C@]2(C)[C@@H](O)C[C@H](O)[C@]3(C)[C@H]4CC=C5[C@@H]6C[C@](C)(C(=O)O)CC[C@]6(C)CC[C@@]5(C)[C@]4(C)CC[C@@H]23)O[C@H]1C | 17.1 (≈ 12.3 µg/mL) |
| CCOC(=O)/C=C\C(=O)c1ccc(C(C)(C)C)cc1 | 30.7 (≈ 8 µg/mL) |
| Cc1c(Cc2ccc(N3CCNCC3)cc2C(F)(F)F)cc(-c2ccc(Cl)cc2)n1-c1ccc(Cl)cc1 | 7.35 (≈ 4 µg/mL) |
| CCOC(=O)/C=C/C(=O)c1ccc(C(C)(C)C)cc1 | 15.4 (≈ 4 µg/mL) |
| Cc1c(Cc2ccc(N3CCNCC3)cn2)cc(-c2ccc(Cl)cc2)n1-c1ccc(Cl)cc1 | 16.8 (≈ 8.02 µg/mL) |
| Nc1ccc(-c2nc3cc(-c4ccc5[nH]c(-c6ccc(N)cc6)nc5c4)ccc3[nH]2)cc1 | 19.2 (≈ 8 µg/mL) |
| CC(=O)O[C@@H]1[C@@H](O)[C@@H](O)[C@H](OC[C@]2(C)[C@@H](O)C[C@H](O)[C@]3(C)[C@H]4CC=C5[C@@H]6C[C@](C)(C(=O)O)CC[C@]6(C)CC[C@@]5(C)[C@]4(C)CC[C@@H]23)O[C@H]1C | 29.3 (≈ 19.8 µg/mL) |

— ChEMBL document CHEMBL6134767, “Advances in antibacterial agents for Mycobacterium fortuitum” (2025)
